Assay results: patent US11058680B2, “Combinations of opioid/TLR4 antagonists and acetaminophen for use in the treatment of emotional pain and insomnia” (Allodynic Threapeutics, LLC, priority 2016, dated 2021)
“And” between values parts separate entries of the source, which are not always exact repeats. Equal values may be shown once.

System: migraine attacks
Test: Naltrexone/acetaminophen open-label pilot study, acute treatment of migraine: headache pain (4-point scale; relief score ≤1, pain-free score = 0), associated symptoms, additional meds
Assay type: in vivo, human
Procedure: Sixteen unique patients were enrolled in an open phase pilot study for the acute treatment of migraine attacks, insomnia, and emotional pain. Of the sixteen patients, eleven were evaluated for one migraine attack, one for two attacks, two for four attacks, one for six attacks, and one for fourteen attacks. A total of forty-one […] treatments were evaluated. Patients received a single dose of one of the following treatment options:
The majority of the patients remained in the clinic for observation for 2 hours after dosing. They completed headache diary assessments immediately before and after dosing at time points: 7, 15, and 30 minutes; and 1, 1.5, 2, 3, 6, 12, 24, and 48 hours. Headache pain was assessed on a 4-point scale (0=none; 1=mild; 2=moderate; 3=severe). The assessment of photophobia, phonophobia, nausea, and neck/shoulder pain was assessed as present or absent. The assessment of emotional pain was recorded on a 4-point scale (0=none, 1=mild, 2=moderate, 3=severe). The assessment of difficulty sleeping or falling asleep (insomnia) was assessed on a 4-point scale (0=none, 1=mild, 2=moderate, 3=severe) at baseline, for the night before treatment and for the following nights at 24, and 48 hours. Patients recorded side effects severity at each time point. Patients recorded the time of the first rescue medication dose and all additional headache medications used within 48 hours. Patients were required to stay awake to record their assessments in the first 2 hours, sleeping was permitted thereafter. While asleep, assessments were completed according to patients' best estimation. For data analysis, it was assumed that a migraine attack is a unique patient. Patients were asked to specify (yes or no answer) to whether they experienced emotional pain symptoms such as: hurt feelings, sadness, fear, or anger. Patients who replied positively to having emotional pain were asked to specify the cause into one of the following options: relationship, work/school, money/debt, health, or loss/grief.

[1] = 3 h, NTX/APAP 3.25 mg/325 mg, NTX 3.25 mg
[2] = 3 h, NTX/APAP 5 mg/325 mg, NTX 5 mg
[3] = 3 h, NTX/APAP […]325 mg, NTX 1.5 mg
[4] = 3 h, naltrexone/acetaminophen 2.25 mg/325 mg (N=21), naltrexone 2.25 mg (N=9)
[5] = 4 h, NTX/APAP 2.25 mg/325 mg, NTX 2.25 mg
[6] = 4 h, NTX/APAP 3.25 mg/325 mg, NTX 3.25 mg
[7] = 4 h, NTX/APAP 5 mg/325 mg, NTX 5 mg
[8] = 4 h, NTX/APAP […]325 mg, NTX 1.5 mg
[9] = 4 h, naltrexone/acetaminophen 2.25 mg/325 mg (N=21), naltrexone 2.25 mg (N=9)
[10] = 6 h, NTX/APAP 2.25 mg/325 mg, NTX 2.25 mg
[11] = 6 h, NTX/APAP 3.25 mg/325 mg, NTX 3.25 mg
[12] = 6 h, NTX/APAP 5 mg/325 mg, NTX 5 mg
[13] = 6 h, NTX/APAP […]325 mg, NTX 1.5 mg
[14] = 6 h, naltrexone/acetaminophen 2.25 mg/325 mg (N=21), naltrexone 2.25 mg (N=9)
[15] = 12 h, NTX/APAP 2.25 mg/325 mg, NTX 2.25 mg

`O=C1CC[C@@]2(O)[C@H]3Cc4ccc(O)c5c4[C@@]2(CCN3CC2CC2)[C@H]1O5` [naltrexone] was tested, and the Photophobia-free (3 h, NTX/APAP 2.25 mg/325 mg, NTX 2.25 mg) was 8 (88) n (%), the Additional meds taken [1] was 0 and the Headache pain-free [1] was 3 (100) n (%). For the same compound, the Headache pain-relief [1] was 3 (100) n (%), the “Most bothersome symptom free” value [1] was 3 (100) n (%) and the Nausea-free [1] was 3 (100) n (%). The Neck/shoulder pain-free [1] was 3 (100) n (%), the Phonophobia-free [1] was 3 (100) n (%) and the Photophobia-free [1] was 3 (100) n (%). The Additional meds taken [2] was 0, the Headache pain-free [2] was 1 (100) n (%) and the Headache pain-relief [2] was 1 (100) n (%). The “Most bothersome symptom free” value [2] was 1 (100) n (%), the Nausea-free [2] was 1 (100) n (%) and the Neck/shoulder pain-free [2] was 1 (100) n (%). For the same compound, the Phonophobia-free [2] was 1 (100) n (%), the Photophobia-free [2] was 1 (100) n (%) and the Additional meds taken [3] was 0. The Headache pain-free [3] was 3 (100) n (%), the Headache pain-relief [3] was 3 (100) n (%) and the “Most bothersome symptom free” value [3] was 3 (100) n (%). The Nausea-free [3] was 3 (100) n (%), the Neck/shoulder pain-free [3] was 3 (100) n (%) and the Phonophobia-free [3] was 3 (100) n (%). The Photophobia-free [3] was 3 (100) n (%), the Additional meds taken (3 h, combined doses) was 0 and the Headache pain-free (3 h, combined doses) was 14 (88) n (%). The Headache pain-relief (3 h, combined doses) was 16 (100) n (%), the “Most bothersome symptom free” value (3 h, combined doses) was 16 (100) n (%) and the Nausea-free (3 h, combined doses) was 16 (100) n (%). For the same compound, the Neck/shoulder pain-free (3 h, combined doses) was 16 (100) n (%), the Phonophobia-free (3 h, combined doses) was 16 (100) n (%) and the Photophobia-free (3 h, combined doses) was 15 (94) n (%). The Headache pain-free (3 h, naltrexone 1.5 mg (N=3)) was 100%, the Headache pain-free [4] was 77% and 100% and the Headache pain-relief [4] was 100%. For the same compound, the Most bothersome symptom-free [4] was 100%, the Headache pain-free (3 h, naltrexone/acetaminophen 3.25 mg/325 mg (N=3), naltrexone 3.25 mg (N=3)) was 100% and the Additional meds taken [5] was 0 (0). For the same compound, the Headache pain-free [5] was 6 (66) n (%), the Headache pain-relief [5] was 8 (88) n (%) and the Most bothersome symptom-free [5] was 8 (88) n (%). The Nausea-free [5] was 8 (88) n (%), the Neck/shoulder pain-free [5] was 9 (100) n (%) and the Phonophobia-free [5] was 8 (88) n (%). For the same compound, the Photophobia-free [5] was 7 (77) n (%), the Additional meds taken [6] was 0 and the Headache pain-free [6] was 3 (100) n (%). The Headache pain-relief [6] was 3 (100) n (%), the Most bothersome symptom-free [6] was 3 (100) n (%) and the Nausea-free [6] was 3 (100) n (%). For the same compound, the Neck/shoulder pain-free [6] was 3 (100) n (%), the Phonophobia-free [6] was 3 (100) n (%) and the Photophobia-free [6] was 3 (100) n (%). The Additional meds taken [7] was 0, the Headache pain-free [7] was 1 (100) n (%) and the Headache pain-relief [7] was 1 (100) n (%). For the same compound, the Most bothersome symptom-free [7] was 1 (100) n (%), the Nausea-free [7] was 1 (100) n (%) and the Neck/shoulder pain-free [7] was 1 (100) n (%). The Phonophobia-free [7] was 1 (100) n (%), the Photophobia-free [7] was 1 (100) n (%) and the Additional meds taken [8] was 0. For the same compound, the Headache pain-free [8] was 3 (100) n (%), the Headache pain-relief [8] was 3 (100) n (%) and the Most bothersome symptom-free [8] was 3 (100) n (%). For the same compound, the Nausea-free [8] was 3 (100) n (%), the Neck/shoulder pain-free [8] was 3 (100) n (%) and the Phonophobia-free [8] was 3 (100) n (%). The Photophobia-free [8] was 3 (100) n (%), the Additional meds taken (4 h, combined doses) was 0 and the Headache pain-free (4 h, combined doses) was 13 (81) n (%). The Headache pain-relief (4 h, combined doses) was 15 (94) n (%), the Most bothersome symptom-free (4 h, combined doses) was 15 (94) n (%) and the Nausea-free (4 h, combined doses) was 15 (94) n (%). For the same compound, the Neck/shoulder pain-free (4 h, combined doses) was 16 (100) n (%), the Phonophobia-free (4 h, combined doses) was 15 (94) n (%) and the Photophobia-free (4 h, combined doses) was 14 (88) n (%). For the same compound, the Headache pain-free (4 h, naltrexone 1.5 mg (N=3)) was 100%, the Headache pain-free [9] was 66% and 100% and the Headache pain-relief [9] was 88%. For the same compound, the Most bothersome symptom-free [9] was 88%, the Headache pain-free (4 h, naltrexone/acetaminophen 3.25 mg/325 mg (N=3), naltrexone 3.25 mg (N=3)) was 100% and the Additional meds taken [10] was 0 (0). For the same compound, the Headache pain-free [10] was 7 (77) n (%), the Headache pain-relief [10] was 9 (100) n (%) and the Most bothersome symptom-free [10] was 9 (100) n (%). The Nausea-free [10] was 9 (100) n (%), the Neck/shoulder pain-free [10] was 9 (100) n (%) and the Phonophobia-free [10] was 9 (100) n (%). The Photophobia-free [10] was 8 (88) n (%), the Additional meds taken [11] was 0 and the Headache pain-free [11] was 3 (100) n (%). The Headache pain-relief [11] was 3 (100) n (%), the Most bothersome symptom-free [11] was 3 (100) n (%) and the Nausea-free [11] was 3 (100) n (%). For the same compound, the Neck/shoulder pain-free [11] was 3 (100) n (%), the Phonophobia-free [11] was 3 (100) n (%) and the Photophobia-free [11] was 3 (100) n (%). For the same compound, the Additional meds taken [12] was 0, the Headache pain-free [12] was 1 (100) n (%) and the Headache pain-relief [12] was 1 (100) n (%). For the same compound, the Most bothersome symptom-free [12] was 1 (100) n (%), the Nausea-free [12] was 1 (100) n (%) and the Neck/shoulder pain-free [12] was 1 (100) n (%). For the same compound, the Phonophobia-free [12] was 1 (100) n (%), the Photophobia-free [12] was 1 (100) n (%) and the Additional meds taken [13] was 0. The Headache pain-free [13] was 3 (100) n (%), the Headache pain-relief [13] was 3 (100) n (%) and the Most bothersome symptom-free [13] was 3 (100) n (%). For the same compound, the Nausea-free [13] was 3 (100) n (%), the Neck/shoulder pain-free [13] was 3 (100) n (%) and the Phonophobia-free [13] was 3 (100) n (%). For the same compound, the Photophobia-free [13] was 3 (100) n (%), the Additional meds taken (6 h, combined doses) was 0 and the Headache pain-free (6 h, combined doses) was 14 (88) n (%). The Headache pain-relief (6 h, combined doses) was 16 (100) n (%), the Most bothersome symptom-free (6 h, combined doses) was 16 (100) n (%) and the Nausea-free (6 h, combined doses) was 16 (100) n (%). The Neck/shoulder pain-free (6 h, combined doses) was 16 (100) n (%), the Phonophobia-free (6 h, combined doses) was 16 (100) n (%) and the Photophobia-free (6 h, combined doses) was 15 (94) n (%). For the same compound, the Headache pain-free (6 h, naltrexone 1.5 mg (N=3)) was 100%, the Headache pain-free [14] was 77% and 100% and the Headache pain-relief [14] was 100%. For the same compound, the Most bothersome symptom-free [14] was 100%, the Headache pain-free (6 h, naltrexone/acetaminophen 3.25 mg/325 mg (N=3), naltrexone 3.25 mg (N=3)) was 100% and the Additional meds taken [15] was 0 (0). The Headache pain-free [15] was 7 (77) n (%), the Headache pain-relief [15] was 9 (100) n (%) and the Most bothersome symptom-free [15] was 9 (100) n (%).
